Results reported in patent publication US20240299415A1, “TREATMENT METHOD FOR INTERSTITIAL PNEUMONIA” (priority 2020, published 2024).

Tests used:
Type in all cases: in vivo
[1] = system: bleomycin-induced pulmonary fibrosis model in rats; test: Dexamethasone side effect indicators (blood lipid metabolism) in the bleomycin-induced rat pulmonary fibrosis model; conditions: FIG. 3; for leptin level compared with the normal control rats: bleomycin model rats
Description: (§1) The quarantine and domestication period was 1 week, after which rats were serpentinely grouped by body weight into control and interstitial pneumonia model groups. On day 0 of the study, rats in the model group were given a single dose of 5 mg/kg bleomycin by a single intratracheal injection of bleomycin. The rats in the control group were given a single drop of saline. Immediately after completion, the animals were placed in an upright position and rotated to facilitate uniform distribution of the drug in the lungs. The animals were placed prone in a warm environment for natural awakening. Animals were fed and watered freely after awakening.
Serum potassium, glucose, triglycerides (TGs), total cholesterol (TC), free fatty acid (FFA), high density lipoprotein (HDL-c), low density lipoprotein (LDL-c), corticosterone (Corticosterone), and blood glucose were measured. HDL-c), low-density lipoprotein cholesterol (LDL-c), corticosterone (CORT), insulin, leptin, 5-hydroxy tryptamine (5-HT), […] norepinephrine (NE).

[2] = system: bleomycin-induced pulmonary fibrosis model in rats; test: Pro-fibrotic proteins and type I collagen in lung tissue of the bleomycin-induced rat pulmonary fibrosis model; conditions: FIG. 2; for multiple pro-fibrotic proteins and collagen type I in rat lung tissues (overall statement): compared with the model group, N=3
Description: as §1
(§2) After the last administration, rats in each group were fasted without water for 12 h, anesthetized by intraperitoneal injection of […] chloral hydrate (3.5 mL/kg), blood was taken from the abdominal aorta, and the serum was separated by centrifugation at 3500 rpm for 15 min. ELISA was performed to detect the cytokines TNF-α, IL-1β, IFN-γ, IL-6, TGF-β1, and IL-4 in alveolar lavage fluid and serum, MCP-1/CCL2, and to detect the content of HYP, MMP2, MMP9, αvβ6, and VEGF in lung tissues, the steps were the same as the standard procedure of the kit.

[3] = system: bleomycin-induced rat model of pulmonary fibrosis; test: Blood inflammatory and pro-fibrotic cytokines (ELISA) in the bleomycin-induced rat model of pulmonary fibrosis; conditions: for bleomycin-induced changes of multiple inflammatory cytokines in the blood of rats (overall statement): compared with the model group, N=6-10
Description: as §1, §2

[4] = bleomycin model rats, change statistically significant
[5] = SD rats, bleomycin 5 mg/kg intratracheal day 0, drug by gavage once daily days 1-28, FIG. 1
[6] = bleomycin decreased the level, drug once daily days 1-28, FIG. 1

## C[C@@H]1C[C@H]2[C@@H]3CCC4=CC(=O)C=C[C@]4(C)[C@@]3(F)[C@@H](O)C[C@]2(C)[C@@]1(O)C(=O)CO [dexamethasone]
[1]
  leptin level compared with the normal control rats: significantly reduced
[1]; dexamethasone treatment in bleomycin model rats
  total cholesterol in the blood: increase
[1]; dexamethasone treatment in bleomycin model rats, increase more pronounced than for total cholesterol
  triglycerides in the blood: increase

## CCCCCC(=O)O[C@]1(C(C)=O)CC[C@H]2[C@@H]3CCC4=CC(=O)CC[C@]4(C)[C@H]3CC[C@@]21C [hydroxyprogesterone caproate]
[1]
  leptin level compared with the normal control rats: significantly reduced
[2]; bleomycin model rats
  CXCL-12 level in lung tissue: reduced
  MMP9 level in lung tissue: reduced
  collagen type I COL I protein level in lung tissue: reduced
[2]; [4]
  MMP2 level in lung tissue: reduced
  PDGF level in lung tissue: reduced
  SMAD2 level in lung tissue: reduced
  SMAD3 level in lung tissue: reduced
  TGF-β1 level in lung tissue: reduced
[2]
  multiple pro-fibrotic proteins and collagen type I in rat lung tissues (overall statement): significant inhibitory effects
[2]; listed as 17-αhydroxyprogesterone
  multiple pro-fibrotic proteins and collagen type I in rat lung tissues (overall statement): significantly ameliorated
[3]; [5]
  blood level of IL-1β: significantly reduced
  blood level of IL-6: significantly reduced
  blood level of MCP-1: significantly reduced
  blood level of TGF-β1: significantly reduced
  blood level of TNF-α: significantly reduced
[3]; [6]
  blood level of IFN-γ: significantly and statistically increased
  blood level of IL-4: significantly and statistically increased
[3]; FIG. 1
  bleomycin-induced changes of multiple inflammatory cytokines in the blood of rats (overall statement): significantly improve
[3]; FIG. 1, listed as 17-αhydroxyprogesterone
  bleomycin-induced changes of multiple inflammatory cytokines in the blood of rats (overall statement): significantly ameliorated
[3]; versus positive control drug pirfenidone (54 mg/kg)
  combined improvement effect on inflammatory and pro-fibrotic factors in the blood, compared with pirfenidone: significantly better than that of the positive control drug pirfenidone
